Measured values: ChEMBL document CHEMBL2074084, “Cloning and functional characterization of a novel rat organic anion transporter mediating basolateral uptake of methotrexate in the kidney” (J Biol Chem, 1996)

Assays:
Type in all cases: functional, cell-based
[1] = biological target: T1, Solute carrier organic anion transporter family member 1A3 (Rattus norvegicus, UniProt P70502); assay: TP_TRANSPORTER: inhibition of MTX uptake (MTX: 0.026 uM, BSP: 100 uM) in OAT-K1-expressing LLC-PK1 cells; conditions: pig, llc-pk1, 100 µM
T1 sequence (P70502 whole entry): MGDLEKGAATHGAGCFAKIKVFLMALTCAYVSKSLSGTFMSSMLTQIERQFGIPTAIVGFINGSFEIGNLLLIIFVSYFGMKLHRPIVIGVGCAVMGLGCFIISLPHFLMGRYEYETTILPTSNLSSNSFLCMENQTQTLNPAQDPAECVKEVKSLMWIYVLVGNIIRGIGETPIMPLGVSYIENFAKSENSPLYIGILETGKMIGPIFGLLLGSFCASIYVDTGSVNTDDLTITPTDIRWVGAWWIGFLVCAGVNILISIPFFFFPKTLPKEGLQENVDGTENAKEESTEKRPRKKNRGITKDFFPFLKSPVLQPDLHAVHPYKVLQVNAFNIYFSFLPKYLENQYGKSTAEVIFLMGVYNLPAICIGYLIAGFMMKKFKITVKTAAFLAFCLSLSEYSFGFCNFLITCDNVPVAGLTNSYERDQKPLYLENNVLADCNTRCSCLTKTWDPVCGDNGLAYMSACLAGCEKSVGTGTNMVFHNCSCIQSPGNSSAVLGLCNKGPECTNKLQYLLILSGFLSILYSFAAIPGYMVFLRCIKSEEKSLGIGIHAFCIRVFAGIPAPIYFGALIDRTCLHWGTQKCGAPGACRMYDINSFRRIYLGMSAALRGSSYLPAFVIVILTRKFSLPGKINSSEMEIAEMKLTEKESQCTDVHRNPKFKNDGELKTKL

[2] = biological target: T1, Solute carrier organic anion transporter family member 1A3; assay: TP_TRANSPORTER: inhibition of MTX uptake (MTX: 0.026 uM, Folic acid: 100 uM) in OAT-K1-expressing LLC-PK1 cells; conditions: pig, llc-pk1, 100 µM
[3] = substrate: CN(Cc1cnc2nc(N)nc(N)c2n1)c1ccc(C(=O)N[C@@H](CCC(=O)O)C(=O)O)cc1; assay: TP_TRANSPORTER: uptake in OAT-K1-expressing LLC-PK1 cells

With `O=C1OC(c2ccc(O)c(S(=O)(=O)[O-])c2)(c2ccc(O)c(S(=O)(=O)[O-])c2)c2c(Br)c(Br)c(Br)c(Br)c21.[Na+].[Na+]` [SULFOBROMOPHTHALEIN SODIUM] the Activity [1] was “inhibitor [(at a rough estimate) 35 % of control]”.

`Nc1nc2ncc(CNc3ccc(C(=O)N[C@@H](CCC(=O)O)C(=O)O)cc3)nc2c(=O)[nH]1` [FOLIC ACID] was tested, and the Activity [2] was “inhibitor [(at a rough estimate) 35 % of control]”.

B1: Solute carrier organic anion transporter family member 1A3 (Rattus norvegicus) (protein)
chain: MGDLEKGAATHGAGCFAKIKVFLMALTCAYVSKSLSGTFMSSMLTQIERQFGIPTAIVGFINGSFEIGNLLLIIFVSYFGMKLHRPIVIGVGCAVMGLGCFIISLPHFLMGRYEYETTILPTSNLSSNSFLCMENQTQTLNPAQDPAECVKEVKSLMWIYVLVGNIIRGIGETPIMPLGVSYIENFAKSENSPLYIGILETGKMIGPIFGLLLGSFCASIYVDTGSVNTDDLTITPTDIRWVGAWWIGFLVCAGVNILISIPFFFFPKTLPKEGLQENVDGTENAKEESTEKRPRKKNRGITKDFFPFLKSPVLQPDLHAVHPYKVLQVNAFNIYFSFLPKYLENQYGKSTAEVIFLMGVYNLPAICIGYLIAGFMMKKFKITVKTAAFLAFCLSLSEYSFGFCNFLITCDNVPVAGLTNSYERDQKPLYLENNVLADCNTRCSCLTKTWDPVCGDNGLAYMSACLAGCEKSVGTGTNMVFHNCSCIQSPGNSSAVLGLCNKGPECTNKLQYLLILSGFLSILYSFAAIPGYMVFLRCIKSEEKSLGIGIHAFCIRVFAGIPAPIYFGALIDRTCLHWGTQKCGAPGACRMYDINSFRRIYLGMSAALRGSSYLPAFVIVILTRKFSLPGKINSSEMEIAEMKLTEKESQCTDVHRNPKFKNDGELKTKL
Work on B1 yielded a Km [3] of 1 µM.
